Tested on: blood-aqueous barrier of the eye
Test: Effect of the present compound on the blood-aqueous barrier of the eye (anterior chamber irrigation, carboxy-fluorescein leakage)
Type: in vivo, White rabbits
Conditions: mean ± S.E.
Method: White rabbits weighing about 2.5 kg were used.
Physiological saline, 0.06, 0.6 and 6 mM solutions of DCE-GS in physiological saline, and a 0.3 mM solution of GSSG (oxidized glutathione)in physiological saline were used as intraocular irrigating solutions and their effects on the blood-aqueous barrier of the eye were evaluated.
Two 23 G needles connected to a polyethylene tube were gently inserted into the anterior chamber of the eye of rabbits under anesthesia (ketamine hydrochloride: xylazine hydrochloride=1:1) and 0.5 ml/kg of 1% carboxy-fluorescein was injected into the auricular vein immediately before irrigation. Using a syringe pump, the intraocular irrigating solution was infused at the rate of 1.5 ml/min. and 25 μl of the outflowing intraocular irrigating solution and the blood were respectively collected at 15-minute intervals over the period of 1 hour and the intensity of florescence of each sample was determined with a spectrophotofluorometer. The collected blood was mixed with 2.5 ml of physiological saline and the mixture was centrifuged at 3000 rpm to separate the supernatant for use as a sample.
The degree (4) of protein leakage was calculated by means of the following equation. (Intensity of fluorescence of irrigating solution/intensity of fluorescence of blood)×100 (%)

## N[C@@H](CCC(=O)N[C@@H](CSC(CC(=O)O)C(=O)O)C(=O)NCC(=O)O)C(=O)O (stereo partly drawn) [DCE-GS, S-(α,β-dicarboxyethyl) glutathione]
0.06 mM in physiological saline, irrigation 1.5 ml/min, time 15 min, n 7
  degree of protein leakage: 0.16 ± 0.02%
0.06 mM in physiological saline, time 30 min, n 7
  degree of protein leakage: 0.23 ± 0.05%
0.06 mM in physiological saline, time 45 min, n 7
  degree of protein leakage: 0.11 ± 0.05%
0.06 mM in physiological saline, time 60 min, n 7
  degree of protein leakage: 0.18 ± 0.03%
0.6 mM in physiological saline, time 15 min, n 8
  degree of protein leakage: 0.13 ± 0.01%
0.6 mM in physiological saline, time 30 min, n 8
  degree of protein leakage: 0.19 ± 0.02%
0.6 mM in physiological saline, time 45 min, n 8
  degree of protein leakage: 0.15 ± 0.02%
0.6 mM in physiological saline, time 60 min, n 8
  degree of protein leakage: 0.13 ± 0.02%
6 mM in physiological saline, time 15 min, n 5
  degree of protein leakage: 0.13 ± 0.02%
6 mM in physiological saline, time 30 min, n 5
  degree of protein leakage: 0.16 ± 0.02%
6 mM in physiological saline, time 45 min, n 5
  degree of protein leakage: 0.22 ± 0.04%
6 mM in physiological saline, time 60 min, n 5
  degree of protein leakage: 0.15 ± 0.02%

## oxidized glutathione [GSSG, reference compound]
0.3 mM in physiological saline, time 15 min, n 5
  degree of protein leakage: 0.22 ± 0.03%
0.3 mM in physiological saline, time 30 min, n 5
  degree of protein leakage: 0.17 ± 0.01%
0.3 mM in physiological saline, time 45 min, n 5
  degree of protein leakage: 0.15 ± 0.03%
0.3 mM in physiological saline, time 60 min, n 5
  degree of protein leakage: 0.15 ± 0.03%
